Earlier results as cited in patent EP0893690B1, “Detection of mycotoxins by flow-through membrane-based enzyme immunoassay” (priority 1997, dated 1999).

What was measured:
[1] = tested on: monoclonal anti-OA antibody (IgG1 with kappa light chains); details: relative to OA; called weak
[2] = target: monoclonal anti-OA antibody (IgG1 with kappa light chains); details: association constant of the anti-OA antibody for its antigen OA; read-out: affinity constant (converted)

C[C@@H]1Cc2ccc(C(=O)N[C@@H](Cc3ccccc3)C(=O)O)c(O)c2C(=O)O1 [ochratoxin B]
cross-reaction [1]: 9.3%

C[C@@H]1Cc2c(Cl)cc(C(=O)N[C@@H](Cc3ccccc3)C(=O)O)c(O)c2C(=O)O1 [OA, ochratoxin A]
Kd [2]: 0.128 nM
